Measurements reported in patent publication US20260108615A1, “SELF-ASSEMBLED MUCOADHESIVE BIOPOLYMER PARTICLE RELEASE SYSTEM AND PREPARATION METHOD THEREOF” (SZEGEDI TUDOMÁNYEGYETEM, priority 2021, published 2026).
Blank lines part the entries; values can stand above or below the molecule they belong to.

What was measured:
Assay type in all cases: physicochemical
[1] = in-vitro drug-releasing profile of KETO; details: FIG. 17
[2] = in vitro DOX release through cellulose membrane into PBS buffer
Method: The DOX release was measured according to the following: the in vitro experiments of the DOX releasing were performed using a cellulose membrane (Sigma-Aldrich, avg. flat width 10 mm (0.4 in.)). The released DOX amount from the bare and conjugated form was spectrophotometrically measured by monitoring the change in the intensity of the characteristic absorbance peak of DOX at λ=481 nm. DOX concentration is directly proportional to the maximal absorption values estimated at 481 nm [CDOX (mg/ml) (A at 481 nm)/18.836; R^2=0.996], according to the calibration curve previously determined within the range of 0-0.066 mg/ml. Solid powder of pure drug and conjugated form (corresponding to 0.045 mg/ml of DOX) were inserted in a cellulose membrane that was closed and dropped into 20 ml of a PBS buffer solution with pH=7.4 (37° C.; 0.9 wt % NaCl content). 3 ml of the aqueous solution was pulled from the release media at selected interval times and DOX concentration was measured. The release profiles of DOX released from different forms are shown in FIG. 14a in percent form and FIG. 14b in concentration form, releasing from the bare DOX was too fast a process with a maximum releasing percent of 78%. […] According to Table 2, releasing from the bare DOX data were fitted with the Higuchi model that describes the drug release a diffusion process based on Fick's law which is square root time-dependent, assumes the diffusivity of the drug is constant.

[3] = in-vitro drug-releasing profile of HBA; details: FIG. 18

KETO releasing process [1]: fast releasing process for the first 5 h
SMILES: CC(C(=O)O)c1cccc(C(=O)c2ccccc2)c1 (stereo not shown) [bare KETO, ketoprofen]

concentration of DOX in PBS buffer solution after one day (decomposition) ([2]; PBS at 37° C., after one day of release): continuously decreased | maximum releasing percent ([2]; PBS pH=7.4, 37° C., 0.9 wt % NaCl, cellulose membrane): 78%
SMILES: COc1cccc2c1C(=O)c1c(O)c3c(c(O)c1C2=O)C[C@@](O)(C(=O)CO)C[C@@H]3O[C@H]1C[C@H](N)[C@H](O)[C@H](C)O1 [Pure DOX, doxorubicin]
First-order model k ([2]; fit of DOX release data): 0.2689 | Higuchi model k ([2]; fit of DOX release data): 36.808 | Hixson-Crowell model k ([2]; fit of DOX release data): 0.0063 | Korsmeyer-Peppas model k ([2]; fit of DOX release data): 26.18 | Korsmeyer-Peppas model n (release exponent) ([2]; fit of DOX release data): 0.763 | Zero-order model k ([2]; fit of DOX release data): 13.11

SMILES: OCc1ccc(O)cc1 [Bare HBA, 4-hydroxybenzyl alcohol]
HBA releasing process [3]: very rapid release process for the first 3 h
